Assay [1] concerns GABAARs in hippocampal neurons. Put plainly: slow inward current directly activated by CGP7930 in hippocampal neurons in high K+ external solution and its block by GABAAR antagonists. The following applies: hippocampal neurons, high external K+. Format: cell-based, rat. The method, then: Spontaneous inhibitory postsynaptic currents (sIPSCs) were recorded from cultured hippocampal neurons at 12–17 days in vitro (DIV). […] For recording K^+ currents in GIRK cells and neurons, the bath solution was switched to a high K^+ solution containing 25 mM KCl and reduced NaCl (120 mM), to shift the equilibrium potential for K^+ from approximately −90 to −47 mV, thus reversing the direction of K^+ current flux to net inward. GABABR-activated K^+ currents in cultured neurons were recorded in the additional presence of 2 mM kynurenic acid and 20 μM picrotoxin.
CGP7930 modulation at neuronal GABABRs was also characterised using baclofen-activated GIRK currents in hippocampal cultures similarly bathed in a high external K^+ concentration.

In assay [2] the target is T1, Kir3.1/3.2 channels (GIRK) (Homo sapiens, UniProt P48051+P48549).
T1 construct: expressed in transfected cells
T1 sequence (P48549 1-501): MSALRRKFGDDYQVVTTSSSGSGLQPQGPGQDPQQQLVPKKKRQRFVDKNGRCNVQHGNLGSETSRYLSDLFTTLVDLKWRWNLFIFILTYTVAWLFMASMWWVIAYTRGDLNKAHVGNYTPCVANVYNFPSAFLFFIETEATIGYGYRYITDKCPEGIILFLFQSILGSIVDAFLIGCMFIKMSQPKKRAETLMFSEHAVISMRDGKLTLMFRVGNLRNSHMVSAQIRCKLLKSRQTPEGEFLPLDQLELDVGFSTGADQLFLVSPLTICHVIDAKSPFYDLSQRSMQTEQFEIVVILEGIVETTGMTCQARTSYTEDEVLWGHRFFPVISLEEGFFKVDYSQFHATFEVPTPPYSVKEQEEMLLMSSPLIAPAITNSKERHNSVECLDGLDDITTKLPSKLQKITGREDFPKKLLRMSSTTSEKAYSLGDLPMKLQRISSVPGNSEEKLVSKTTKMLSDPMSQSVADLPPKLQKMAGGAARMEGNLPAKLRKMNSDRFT
T1 sequence (P48051 1-423): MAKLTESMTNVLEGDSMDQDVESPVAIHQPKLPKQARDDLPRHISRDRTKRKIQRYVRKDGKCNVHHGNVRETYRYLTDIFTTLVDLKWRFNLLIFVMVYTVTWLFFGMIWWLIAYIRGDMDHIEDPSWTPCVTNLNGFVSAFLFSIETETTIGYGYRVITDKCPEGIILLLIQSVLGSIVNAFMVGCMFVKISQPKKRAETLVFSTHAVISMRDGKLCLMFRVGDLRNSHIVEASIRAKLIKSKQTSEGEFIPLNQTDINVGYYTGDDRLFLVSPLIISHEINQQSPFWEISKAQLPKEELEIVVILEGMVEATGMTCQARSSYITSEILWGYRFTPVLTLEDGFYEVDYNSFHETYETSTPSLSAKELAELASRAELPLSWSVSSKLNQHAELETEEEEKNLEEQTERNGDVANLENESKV
Put plainly: block of basally-active K+ currents in GIRK cells not expressing GABABRs, high K+ Krebs. Format: cell-based. As to the method:
HEK-293T cells were maintained in Dulbecco's modified Eagle's medium containing 10% (v/v) fetal calf serum (FCS), 100 U/ml penicillin-G, 100 μg/ml streptomycin in 95% air/5% CO2 at 37 °C. All cell culture reagents were acquired from ThermoFisher unless otherwise stated. Cells were plated on 22 mm glass coverslips (VWR, UK), coated with poly-L-lysine (Sigma) and transfected using a calcium phosphate method with cDNAs for eGFP, α, β, γ or δ, in a 1:1:1:1 ratio ([Hannan et al., 2020]) applied 1–2 h after cell plating. HEK-293 cells stably expressing Kir3.1/3.2 channels ([Leaney et al., 2000]) were grown in a selection media containing G418 (0.5 mg/ml) and Zeocin (0.4 mg/ml) and passaged, and plated, as for the HEK-293T cells above. These cells are referred to as GIRK cells throughout the text and were transiently transfected with cDNAs for eGFP, GABAB R1a and R2 in a 1:1:5 ratio applied 1–2 h after cell plating.
GABA-activated currents were recorded 24 h after transfection of HEK-293T or GIRK cells. Spontaneous inhibitory postsynaptic currents (sIPSCs) were recorded from cultured hippocampal neurons at 12–17 days in vitro (DIV). Cells were superfused with a saline solution containing (mM): 140 NaCl, 4.7 KCl, 2.52 CaCl2, 1.2 MgCl2, 11 glucose, and 5 HEPES; pH 7.4. sIPSCs from hippocampal culture neurons were recorded in the presence of 2 mM kynurenic acid to block excitatory neurotransmission. […] GABABR-activated K^+ currents in cultured neurons were recorded in the additional presence of 2 mM kynurenic acid and 20 μM picrotoxin.
Borosilicate glass electrodes (3–5 MΩ) were filled with a K^+-based internal solution for recording GIRK currents containing (mM): 120 KCl, 2 MgCl2, 11 EGTA, 30 KOH, 10 HEPES, 1 CaCl2, 1 GTP, 2 ATP, 14 creatine phosphate, pH 7.0. GABAAR currents and sIPSCs were recorded with a Cs-based internal solution containing (mM): 120 CsCl, 1 MgCl2, 11 EGTA, 30 KOH, 10 HEPES, 1 CaCl2, and 2 K2ATP; pH 7.2. […]

Some results are limits rather than exact numbers.

For the compound `CC(C)(CO)Cc1cc(C(C)(C)C)c(O)c(C(C)(C)C)c1` [CGP7930, 3-(3′,5′-Di-tert-butyl-4′-hydroxy) phenyl-2,2-dimethylpropanol], in assay [1], the “concentration at which pre-application caused a slow inward current” value is more than 3 µM. Also, in assay [2] (10 or 100 μM), the “effect on GIRK-mediated inwardly-rectifying currents (I–V, −20 to −120 mV)” value is on record as “inhibition”. The “threshold for whole-cell outward currents” value in assay [2] (GIRK cells without GABABRs, −60 mV, high K+) stood at 0.3 µM. Moreover, the “effect on additional outward rectification (depolarising steps)” value in assay [2] (GIRK cells, I–V) is listed as “inhibited”.

(Values after article PMC10951960, “CGP7930 - An allosteric modulator of GABABRs, GABAARs and inwardly-rectifying potassium channels” (Neuropharmacology, 2023).)
